Source: patent US11324219B2, “Amide compound or salt thereof, agricultural and horticultural microbicide comprising the compound and the salt, and method for using the agricultural and horticultural microbicide” (Nihon Nohyaku Co., Ltd., priority 2018, dated 2022)

- melting point: 160 to 162 °C
Structure (SMILES): CCS(=O)(=O)c1cc(C(F)(F)F)ccc1C(=O)Nc1oc(C(F)(F)F)cc1Br [Compound 1-23, N-[3-bromo-5-(trifluoromethyl)furan-2-yl]-2-(ethylsulfonyl)-4-(trifluoromethyl)benzamide]
